Experimental data from ChEMBL document CHEMBL4177650, “Synthesis and biological evolution of hydrazones derived from 4-(trifluoromethyl)benzohydrazide” (Bioorg Med Chem Lett, 2017).
pIC50: −log10 of the molar value. In brackets after ≈: the same amount, converted by molar mass. Activity calls are given as the source filed them. No cut-off for these calls is given here.

Key:
[1] = system: Mycobacterium tuberculosis; assay: Antimycobacterial activity against Mycobacterium tuberculosis H37Rv 331/88 after 14 days by micromethod; type: functional; conditions: H37Rv 331/88, 336 h
[2] = system: Mycobacterium tuberculosis; assay: Antimycobacterial activity against Mycobacterium tuberculosis H37Rv 331/88 after 21 days by micromethod; type: functional; conditions: H37Rv 331/88, 504 h
Mycobacterium avium [3] = assay: Antimycobacterial activity against Mycobacterium avium 330/88 after 14 days by micromethod; type: functional; conditions: 330/88, 336 h
Mycobacterium avium [4] = assay: Antimycobacterial activity against Mycobacterium avium 330/88 after 21 days by micromethod; type: functional; conditions: 330/88, 504 h
Mycobacterium kansasii [5] = assay: Antimycobacterial activity against Mycobacterium kansasii 6509/80 after 7 days by micromethod; type: functional; conditions: 6509/80, 168 h
Mycobacterium kansasii [6] = assay: Antimycobacterial activity against Mycobacterium kansasii 6509/80 after 14 days by micromethod; type: functional; conditions: 6509/80, 336 h
Mycobacterium kansasii [7] = assay: Antimycobacterial activity against Mycobacterium kansasii 6509/80 after 21 days by micromethod; type: functional; conditions: 6509/80, 504 h
Mycobacterium kansasii [8] = assay: Antimycobacterial activity against Mycobacterium kansasii 6509/96 after 7 days by micromethod; type: functional; conditions: 6509/96, 168 h
Mycobacterium kansasii [9] = assay: Antimycobacterial activity against Mycobacterium kansasii 6509/96 after 14 days by micromethod; type: functional; conditions: 6509/96, 336 h
Mycobacterium kansasii [10] = assay: Antimycobacterial activity against Mycobacterium kansasii 6509/96 after 21 days by micromethod; type: functional; conditions: 6509/96, 504 h
Staphylococcus aureus [11] = assay: Antibacterial activity against gram-positive Staphylococcus aureus CCM 4516/08 after 24 hrs by microdilution broth method; type: functional; conditions: CCM 4516/08, 24 h
Staphylococcus aureus [12] = assay: Antibacterial activity against gram-positive Staphylococcus aureus CCM 4516/08 after 48 hrs by microdilution broth method; type: functional; conditions: CCM 4516/08, 48 h
Staphylococcus aureus [13] = assay: Antibacterial activity against gram-positive methicillin-resistant Staphylococcus aureus H 5996/08 after 24 hrs by microdilution broth method; type: functional; conditions: H 5996/08, 24 h
Staphylococcus aureus [14] = assay: Antibacterial activity against gram-positive methicillin-resistant Staphylococcus aureus H 5996/08 after 48 hrs by microdilution broth method; type: functional; conditions: H 5996/08, 48 h
[15] = system: Staphylococcus epidermidis; assay: Antibacterial activity against gram-positive Staphylococcus epidermidis H 6966/08 after 24 hrs by microdilution broth method; type: functional; conditions: H 6966/08, 24 h
[16] = system: Staphylococcus epidermidis; assay: Antibacterial activity against gram-positive Staphylococcus epidermidis H 6966/08 after 48 hrs by microdilution broth method; type: functional; conditions: H 6966/08, 48 h
Enterococcus faecalis [17] = assay: Antibacterial activity against gram-positive Enterococcus faecalis J 14365/08 after 24 hrs by microdilution broth method; type: functional; conditions: J 14365/08, 24 h
Enterococcus faecalis [18] = assay: Antibacterial activity against gram-positive Enterococcus faecalis J 14365/08 after 48 hrs by microdilution broth method; type: functional; conditions: J 14365/08, 48 h
Escherichia coli [19] = assay: Antibacterial activity against gram-negative Escherichia coli CCM 4517 after 24 hrs by microdilution broth method; type: functional; conditions: CCM 4517, 24 h
Escherichia coli [20] = assay: Antibacterial activity against gram-negative Escherichia coli CCM 4517 after 48 hrs by microdilution broth method; type: functional; conditions: CCM 4517, 48 h
Klebsiella pneumoniae [21] = assay: Antibacterial activity against gram-negative Klebsiella pneumoniae D 11750/08 after 24 to 48 hrs by microdilution broth method; type: functional, organism-based
Pseudomonas aeruginosa = assay: Antibacterial activity against gram-negative Pseudomonas aeruginosa CCM 1961 after 48 hrs by microdilution broth method; type: functional, organism-based
Klebsiella pneumoniae [22] = assay: Antibacterial activity against extended spectrum beta-lactamase-positive Klebsiella pneumoniae J 14368/08 after 24 to 48 hrs by microdilution broth method; type: functional, organism-based
Candida tropicalis [23] = assay: Antifungal activity against Candida tropicalis 156 after 24 hrs by microdilution broth method; type: functional; conditions: Candida tropicalis, 156, 24 h
Candida tropicalis [24] = assay: Antifungal activity against Candida tropicalis 156 after 48 hrs by microdilution broth method; type: functional; conditions: Candida tropicalis, 156, 48 h
Pichia kudriavzevii [25] = assay: Antifungal activity against Candida krusei E28 after 24 hrs by microdilution broth method; type: functional; conditions: E28, 24 h
Pichia kudriavzevii [26] = assay: Antifungal activity against Candida krusei E28 after 48 hrs by microdilution broth method; type: functional; conditions: E28, 48 h
Nakaseomyces glabratus [27] = assay: Antifungal activity against Candida glabrata 20/I after 24 hrs by microdilution broth method; type: functional
Nakaseomyces glabratus [28] = assay: Antifungal activity against Candida glabrata 20/I after 48 hrs by microdilution broth method; type: functional
[29] = system: Trichophyton mentagrophytes; assay: Antifungal activity against Trichophyton mentagrophytes 445 after 72 hrs by microdilution broth method; type: functional; conditions: Trichophyton mentagrophytes, 445, 72 h
[30] = system: Trichophyton mentagrophytes; assay: Antifungal activity against Trichophyton mentagrophytes 445 after 120 hrs by microdilution broth method; type: functional; conditions: Trichophyton mentagrophytes, 445, 120 h
Candida albicans = assay: Antifungal activity against Candida albicans ATCC 44859 after 24 to 48 hrs by microdilution broth method; type: functional, organism-based
Trichosporon asahii = assay: Antifungal activity against Trichosporon asahii 1188 after 24 to 48 hrs by microdilution broth method; type: functional, organism-based
Aspergillus fumigatus = assay: Antifungal activity against Aspergillus fumigatus 231 after 24 to 48 hrs by microdilution broth method; type: functional, organism-based
Lichtheimia corymbifera = assay: Antifungal activity against Absidia corymbifera 272 after 24 to 48 hrs by microdilution broth method; type: functional, organism-based
HepG2 [31] = assay: Cytostatic activity against human HepG2 cells incubated overnight followed by compound wash measured after 72 hrs by MTT assay; type: ADME, cell-based; conditions: HepG2, 72 h
MONO-MAC-6 [32] = assay: Cytostatic activity against human MONO-MAC-6 cells incubated overnight followed by compound wash measured after 72 hrs by MTT assay; type: ADME, cell-based; conditions: MONO-MAC-6, 72 h
HepG2 [33] = assay: Cytotoxicity against human HepG2 cells after overnight incubation by MTT assay; type: cell-based
MONO-MAC-6 [34] = assay: Cytotoxicity against human MONO-MAC-6 cells after overnight incubation by MTT assay; type: functional, cell-based
[35] = Cytotoxicity against mouse bone marrow macrophages after overnight incubation by MTT assay; conditions: BMDM
[36] = Selectivity index, ratio of IC50 for human HepG2 cells to MIC for Mycobacterium tuberculosis H37Rv 331/88; type: toxicity; conditions: read-out: Selectivity Index
[37] = Selectivity index, ratio of IC50 for human HepG2 cells to MIC for Mycobacterium avium 330/88; type: toxicity; conditions: read-out: Selectivity Index
[38] = Selectivity index, ratio of IC50 for human HepG2 cells to MIC for Mycobacterium kansasii 6509/80; type: toxicity; conditions: read-out: Selectivity Index
[39] = Selectivity index, ratio of IC50 for human HepG2 cells to MIC for Mycobacterium kansasii 6509/96; type: toxicity; conditions: read-out: Selectivity Index
[40] = Selectivity index, ratio of IC50 for human HepG2 cells to MIC for gram-positive Staphylococcus aureus CCM 4516/08; type: toxicity; conditions: read-out: Selectivity Index

Structure (SMILES): O=C(N/N=C/c1ccc(Cl)cc1)c1ccc(C(F)(F)F)cc1
- MIC [1]: 16 µM (≈ 5.23 µg/mL)
- MIC [2]: 16 µM (≈ 5.23 µg/mL)
- MIC (Mycobacterium avium [3]): > 125 µM
- MIC (Mycobacterium avium [4]): > 125 µM
- MIC (Mycobacterium kansasii [5]): 16 µM (≈ 5.23 µg/mL)
- MIC (Mycobacterium kansasii [6]): 16 µM (≈ 5.23 µg/mL)
- MIC (Mycobacterium kansasii [7]): 16 µM (≈ 5.23 µg/mL)
- MIC (Mycobacterium kansasii [8]): 16 µM (≈ 5.23 µg/mL)
- MIC (Mycobacterium kansasii [9]): 16 µM (≈ 5.23 µg/mL)
- MIC (Mycobacterium kansasii [10]): 16 µM (≈ 5.23 µg/mL)
- MIC (Staphylococcus aureus [11]): 62.5 µM (≈ 20.4 µg/mL)
- MIC (Staphylococcus aureus [12]): 62.5 µM (≈ 20.4 µg/mL)
- MIC (Staphylococcus aureus [13]): 62.5 µM (≈ 20.4 µg/mL)
- MIC (Staphylococcus aureus [14]): 62.5 µM (≈ 20.4 µg/mL)
- MIC [15]: 31.2 µM (≈ 10.2 µg/mL)
- MIC [16]: 62.5 µM (≈ 20.4 µg/mL)
- MIC (Enterococcus faecalis [17]): 62.5 µM (≈ 20.4 µg/mL)
- MIC (Enterococcus faecalis [18]): > 125 µM
- MIC (Escherichia coli [19]): > 125 µM
- MIC (Escherichia coli [20]): > 125 µM
- Activity (Klebsiella pneumoniae [21]): inactive
- Activity (Pseudomonas aeruginosa): inactive
- Activity (Klebsiella pneumoniae [22]): inactive
- MIC (Candida tropicalis [23]): 125 µM (≈ 40.8 µg/mL)
- MIC (Candida tropicalis [24]): 125 µM (≈ 40.8 µg/mL)
- MIC (Pichia kudriavzevii [25]): 62.5 µM (≈ 20.4 µg/mL)
- MIC (Pichia kudriavzevii [26]): 62.5 µM (≈ 20.4 µg/mL)
- MIC (Nakaseomyces glabratus [27]): > 125 µM
- MIC (Nakaseomyces glabratus [28]): > 125 µM
- MIC [29]: 125 µM (≈ 40.8 µg/mL)
- MIC [30]: 125 µM (≈ 40.8 µg/mL)
- Activity (Candida albicans): inactive
- Activity (Trichosporon asahii): inactive
- Activity (Aspergillus fumigatus): inactive
- Activity (Lichtheimia corymbifera): inactive
- pIC50 (HepG2 [31]): < 4.00
- pIC50 (MONO-MAC-6 [32]): < 4.00
- pIC50 (HepG2 [33]): < 4.00
- pIC50 (MONO-MAC-6 [34]): < 4.00
- pIC50 [35]: 5.15
- selectivity ratio [36]: > 6.25
- selectivity ratio [37]: > 6.25
- selectivity ratio [38]: > 6.25
- selectivity ratio [39]: > 6.25
- selectivity ratio [40]: > 1.6
